Data taken from article PMC2778643, “Differential role of the menthol-binding residue Y745 in the antagonism of thermally gated TRPM8 channels” (Molecular Pain, 2009).
Read-outs that look alike come from different tables or passages of the source. Each block holds one molecule with its values, some of them ahead of it.

Columns and labels:
[1] = target: T1, TRPM8-Y745H mutant channel (Mus musculus, UniProt Q8R4D5, Y745H); assay: Whole-cell patch clamp of HEK293 cells expressing TRPM8-Y745H; assay type: cell-based; conditions: for Inhibition of voltage-activated TRPM8-Y745H current: +120 mV
T1 construct: The full length cDNA encoding mouse TRPM8 (NM_134252) in pcDNA5; expressed in transfected cells; host or cells: HEK293
T1 sequence (Q8R4D5 whole entry Y745H): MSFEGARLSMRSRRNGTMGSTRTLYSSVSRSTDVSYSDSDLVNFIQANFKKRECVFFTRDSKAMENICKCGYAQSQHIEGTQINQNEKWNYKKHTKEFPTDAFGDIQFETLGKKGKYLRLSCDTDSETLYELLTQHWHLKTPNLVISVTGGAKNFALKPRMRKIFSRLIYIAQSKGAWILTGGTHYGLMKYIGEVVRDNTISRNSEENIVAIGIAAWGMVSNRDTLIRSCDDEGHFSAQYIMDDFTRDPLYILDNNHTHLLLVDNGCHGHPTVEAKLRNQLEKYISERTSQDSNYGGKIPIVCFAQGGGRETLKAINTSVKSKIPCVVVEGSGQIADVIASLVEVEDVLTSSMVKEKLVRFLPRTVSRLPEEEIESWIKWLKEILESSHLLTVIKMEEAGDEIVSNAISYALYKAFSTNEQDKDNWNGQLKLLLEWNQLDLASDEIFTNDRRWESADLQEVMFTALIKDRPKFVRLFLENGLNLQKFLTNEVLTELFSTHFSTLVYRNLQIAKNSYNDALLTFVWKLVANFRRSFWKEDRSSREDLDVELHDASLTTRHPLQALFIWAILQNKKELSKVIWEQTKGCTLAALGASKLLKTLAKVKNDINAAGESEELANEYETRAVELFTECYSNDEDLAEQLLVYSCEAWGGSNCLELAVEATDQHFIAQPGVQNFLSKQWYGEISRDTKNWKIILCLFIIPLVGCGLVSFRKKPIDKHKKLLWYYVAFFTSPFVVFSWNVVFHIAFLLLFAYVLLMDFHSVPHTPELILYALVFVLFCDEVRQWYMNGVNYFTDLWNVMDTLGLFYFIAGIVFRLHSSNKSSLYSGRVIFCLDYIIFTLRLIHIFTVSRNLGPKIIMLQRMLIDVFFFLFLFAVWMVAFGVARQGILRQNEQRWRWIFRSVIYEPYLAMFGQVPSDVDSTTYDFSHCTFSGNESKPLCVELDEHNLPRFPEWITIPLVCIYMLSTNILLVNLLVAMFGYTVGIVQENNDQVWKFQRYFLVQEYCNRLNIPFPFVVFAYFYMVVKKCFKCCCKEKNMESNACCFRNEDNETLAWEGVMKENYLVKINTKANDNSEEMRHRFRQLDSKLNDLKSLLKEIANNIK
Method: (§1) The full length cDNA encoding mouse TRPM8 (NM_134252) in pcDNA5 (Invitrogen) was kindly provided by Dr. Ardem Patapoutian, (Scripps Research Institute, La Jolla, CA). The TRPM8-Y745H mutant was obtained by site-directed mutagenesis with the following primers: (for) 5'-[…]-3'; (rev) 5'-[…]-3', and Pfu Turbo Taq DNA Polymerase (Roche).
(§2) HEK293 cells were cultured in DMEM containing 10% of foetal bovine serum and antibiotics, and plated in 2 cm^2 wells at 400.000-500.000 cells/well. 20-24 h after plating, the cells were co-transfected with eGFP (0.3 μg/well) and TRPM8-wt or TRPM8-Y745H (2 μg/well) by incubating them with a solution containing the plasmid DNA and Lipofectamine 2000 (Invitrogen) for 5 hours. Subsequently, the cells were trypsinized and replated on poly-L-lysine-coated round coverslips (6 mm diameter). 20-48 h post-transfection, GFP(+) cells were selected for calcium imaging or electrophysiology experiments.
(§3) Whole-cell voltage-clamp recordings of TRPM8-wt/Y745H transfected HEK293 cells were performed simultaneously with temperature recordings. Current development was monitored at a holding potential of -60 mV. For information on voltage-dependent effects, 1.25-s-duration voltage ramps from -100 to +150 mV were delivered at desired time points. Standard patch-pipettes (3-5 MΩ) were made of borosilicate glass capillaries (Harvard Apparatus Ltd, UK), and contained (in mM): 150 NaCl, 3 MgCl2, 5 EGTA, 10 HEPES, (278 mOsm/kg; pH 7.2, adjusted with NaOH). During electrophysiological recordings, a divalent cation -free bath solution was used to minimize desensitization, which contained: 150 NaCl, 10 EDTA, 10 HEPES and 10 glucose (pH 7.4 with NaOH). The divalent-free solution was used in the preparation of all chemical modulator containing solutions. Current signals were recorded with an Axopatch 200B patch-clamp amplifier (Molecular Devices, Sunnyvale, CA, U.S.A.) applying series resistance compensation (60-90%). Stimulus delivery and data acquisition were performed using pClamp 9 software (Molecular Devices). Data were sampled at 5 kHz (ramps) and 1 kHz (timecourse) and filtered online at 2 kHz.
(§4) Coverslip pieces with cultured cells were placed in a microchamber and continuously perfused with solutions warmed at 33°C. The temperature was adjusted with a water-cooled Peltier device placed at the inlet of the chamber, and controlled by a feedback device. Cold-sensitivity was investigated with a temperature decrease to 18-20°C (Figure 1B).
Experiments were always performed in parallel with cells expressing TRPM8-wt and TRPM8-Y745H to minimize any day-to-day variability in experimental conditions. To estimate the shifts in the voltage-dependence of activation of TRPM8-wt/Y745H in HEK293 cells, current-voltage (I-V) relationships from voltage ramps were fitted with an equation that combines a linear conductance multiplied by a Boltzmann activation term: [drawing 1]

[2] = test system: TRPM8-wt channel; conditions: calcium imaging (CI), cited from earlier work
[3] = target: T1, TRPM8-Y745H mutant channel; assay: Calcium imaging (Fura-2) of HEK293 cells expressing TRPM8-Y745H; assay type: cell-based
Method: as §1, §2
(§5) Prior to experiment, HEK293 cells transfected with the TRPM8-wt/Y745H constructs were incubated with 5 μM Fura-2AM dissolved in the bath solution and 0.02% Pluronic (both from Invitrogen) for 40 min at 37°C in darkness. Fluorescence measurements were made with a Leica DM IRE2 inverted microscope fitted with a CCD camera (Imago QE Sensicam, TillPhotonics, Graefelfing, Germany). Fura-2 was excited at 340 nm and 380 nm with a Polychrome IV monochromator (Till Photonics) and the emitted fluorescence was filtered with a 510 nm longpass filter.
as §4

[4] = test system: TRPM8-wt channel; conditions: electrophysiology (EP), +80 mV, cited from earlier work
[5] = target: T2, TRPM8-wt channel (Mus musculus, UniProt Q8R4D5); assay: Whole-cell patch clamp of HEK293 cells expressing TRPM8-wt; assay type: cell-based; conditions: for Inhibition of voltage-activated TRPM8-wt current: 33°C, +120 mV
T2 construct: The full length cDNA encoding mouse TRPM8 (NM_134252) in pcDNA5; expressed in transfected cells; host or cells: HEK293
T2 sequence (Q8R4D5 whole entry): as the sequence (Q8R4D5 whole entry Y745H) above, with H745Y counted along it
Method: as §1, §2, §3, §4
Experiments were always performed in parallel with cells expressing TRPM8-wt and TRPM8-Y745H to minimize any day-to-day variability in experimental conditions. […]

[6] = target: T2, TRPM8-wt channel; set-up: method as in PMID 14757700; conditions: 100 μM menthol-activated TRPM8-wt, FLIPR; cited from earlier work
[7] = target: T2, TRPM8-wt channel; assay: Calcium imaging (Fura-2) of HEK293 cells expressing TRPM8-wt; assay type: cell-based
Method: as §1, §2, §5, §4

[8] = Solubility in the extracellular solution; assay type: physicochemical; conditions: reproducible data above 20 μM complicated
[9] = 100 μM menthol-activated TRPM8-wt, modified from ref 25, read-out: IC50 menthol
[10] = cold-activated TRPM8-wt, read-out: IC50 cold
[11] = 3 μM antagonist, compared with TRPM8-wt
[12] = cold-activated TRPM8-wt, read-out: IC50 cold (converted)
[13] = 100 μM, at 33°C or during cooling

Block of cooling-activated TRPM8-Y745H current ([1]; 3 μM, +80 mV): 98%
Inhibition of voltage-activated TRPM8-Y745H current ([1]; 33°C, 3 μM): without affecting the block
Inhibition of voltage-activated TRPM8-wt current ([5]; 3 μM): strong inhibition
SMILES: CC(C)(C)c1ccc(NC(=O)N2CCN(c3ncccc3Cl)CC2)cc1 [BCTC, 4-[3-chloro-pyridin-2-yl]-piperazine-1-carboxylic acid [4-tert-butyl-phenyl]-amide]
IC50 [2, 9]: 470 ± 10 nM
IC50 [2, 10]: 680 ± 60 nM
Block of cold-evoked [Ca2+]i response of TRPM8-Y745H [3, 11]: maintained its full and reversible blocking potential
IC50 ([4]; 100 μM menthol-activated TRPM8-wt, modified from ref 25, read-out: IC50 menthol (converted)): 340 nM
IC50 [4, 12]: 540 nM

Inhibitory potency at cooling-activated TRPM8-Y745H compared with wild-type (dose-inhibition curves) ([3]; calcium imaging, cooling-activated): lost part of their inhibitory potential
IC50 ([7]; cold-activated TRPM8-wt, calcium imaging (CI), this work): 12 ± 2 µM
SMILES: Oc1cc2c(cc1O)CN(C(=S)NCCc1ccc(Cl)cc1)CCC2 [Capsazepine, N-[2-(4-Chlorophenyl)ethyl]-1,3,4,5-tetrahydro-7,8-dihydroxy-2H-2-benzazepine-2-carbothioamide]
IC50 [6]: 18 ± 1 µM

More lines, now with the values behind:

SMILES: Clc1ccccc1C(c1ccccc1)(c1ccccc1)n1ccnc1 [Clotrimazole, 1-[(2-chlorophenyl)diphenylmethyl]-1H-imidazole]
Solubility in the extracellular solution [8]: limited solubility

SMILES: c1c[nH]cn1 [Imidazole, 1,3-diazacyclopenta-2,4-diene]
Inhibition of cooling-activated TRPM8-Y745H ([3]; 20 μM, 100 μM and 1 mM): ineffective
Inhibition of cooling-activated TRPM8 wild-type ([7]; 20 μM, 100 μM and 1 mM): ineffective

SMILES: COc1ccc(CCCOC(Cn2ccnc2)c2ccc(OC)cc2)cc1 (centres unmarked) [SKF96365]
Block of cold-evoked TRPM8-Y745H current ([1]; 3 μM): completely failed to block
Block of cold-evoked TRPM8-Y745H current ([1]; 20 μM): lacked any inhibitory effects
Inhibition of voltage-activated TRPM8-Y745H current ([1]; 33°C, 3 μM): fully abrogated the inhibition
Apparent gating charge during antagonist application ([1]; TRPM8-Y745H, cooling, 3 μM SKF96365): 0.63 ± 0.04
IC50 [2, 9]: 3000 ± 1000 nM
IC50 [2, 10]: 1000 ± 200 nM
Block of cold-evoked [Ca2+]i response of TRPM8-Y745H [3, 11]: nearly complete loss of effect
Block of cold-evoked [Ca2+]i response of TRPM8-Y745H ([3]; 20 μM (super saturating concentration), compared with 3 μM): unable to increase block
IC50 [4, 12]: 800 nM
Block of cold-evoked TRPM8-wt current ([5]; 3 μM): potent antagonism
Inhibition of voltage-activated TRPM8-wt current ([5]; 3 μM): strong inhibition
Apparent gating charge during antagonist application ([5]; TRPM8-wt, cooling, 3 μM SKF96365): 0.73 ± 0.04

SMILES: CC1CCC(C(C)C)C(O)C1 [menthol, L-menthol]
Agonist effect on whole-cell current, TRPM8-Y745H ([1]; 100 μM, 33°C, all potentials): completely insensitive to menthol
Agonist effect on intracellular calcium, TRPM8-Y745H [3, 13]: lack of menthol responses
Agonist effect on intracellular calcium, TRPM8-wt [7, 13]: increase the intracellular calcium levels
